Earlier results, collected in patent publication US20170001952A1, “FUMARATE COMPOUNDS, PHARMACEUTICAL COMPOSITIONS THEREOF, AND METHODS OF USE” (priority 2015, published 2017).

**Q.** Which aqueous solubility does the source give for COC(=O)/C=C/C(=O)OC [DMF, dimethylfumarate] here?
**A.** poor aqueous solubility
